Assay results: patent US20030134884A1, “Neovascularization inhibitors” (priority 2000, published 2003)

Experiments:
[1] = test system: Human Microvascular Endothelial Cells (HMVE); experiment: human microvascular endothelial cell growth inhibitory assay (Alamar Blue); type: cell-based; details: 72 h, cultured 3 days, 2% bovine fetal serum, Alamar Blue fluorescence, control well = 100%, read-out: IC50 (concentration showing 50% growth inhibitory activity)
Experimental: The angiogenesis inhibitory action of compound (II) and an insulin sensitizer other than compound (II) was determined by a human microvascular endothelial cell growth inhibitory assay method. Human microvascular endothelial cells [Human Microvascular Endothelial Cells (HMVE), (produced by KURABO INDUSTRIES LTD., Japan)] (2×10^4/ml medium, 0.1 ml/well) in MCDB107 medium (GIBCO, US) containing 2% bovine fetal serum was dispensed to a 96 well collagen-coated microplate (produced by SUMITOMO BAKELITE CO., LTD., Japan) and a dimethylformamide (DMF) solution containing various test compounds was diluted and added to the test group. The cells were cultured at 37° C. in 5% CO2 for 3 days. Alamar Blue was added to each well and reacted at 37° C. for 4 hr. Using a fluorometer (Fluoroskan Ascent, produced by LabSystems, US), the fluorescence intensity was measured and the cell count of the well was compared with that of control. Taking the cell count of the control well as 100%, the concentration (IC50) showing 50% growth inhibitory activity was calcualted.

Row | melting point [°C] | SMILES | IC50 [1] [µM]
1 | – | Cc1oc(-c2ccccc2)nc1COc1ccc(CO/N=C(\CCC(=O)O)c2ccccc2)cc1 [compound (7), E-4-[4-(5-methyl-2-phenyl-4-oxazolylmethoxy)benzyloxyimino]-4-phenylbutyric acid] | 23
2 | – | Cc1c(C)c2c(c(C)c1O)CCC(C)(COc1ccc(CC3SC(=O)NC3=O)cc1)O2 (stereo not shown) [compound (B), 5[[4-[(3,4-dihydro-6-hydroxy-2,5,7,8-tetramethyl-2H-1-benzopyran-2-yl)methoxy]phenyl]methyl]-2,4-thiazolidinedione] | 107
3 | 130 to 131 | Cc1sc(-c2ccccc2)nc1COc1ccc(CCC[C@H]2OC(=O)NC2=O)cc1 [compound (D), (R)-(+)-5-[3-[4-[(5-methyl-2-phenyl-4-thiazolyl)methoxy]phenyl]propyl]-2,4-oxazolidinedione] | 496
